We go through two substances from article PMC10038264, “A new family of glutamate-gated chloride channels in parasitic sea louse Caligus rogercresseyi: A subunit refractory to activation by ivermectin is dominant in heteromeric assemblies” (PLOS Pathogens, 2023).

Where two headings read alike, the source gives them in different places.

Assay [1] has as its target T1, CrGluCl-A (Caligus rogercresseyi, UniProt A0A1W6LZ70). To be noted: cited from earlier work.
For assay [2], the system named is CrGluCl-B. Description: Two-electrode voltage-clamp of Xenopus oocytes expressing CrGluCl-B. Particulars: CrGluCl-B. The format is cell-based, Caligus rogercresseyi. The protocol: (§1) Adult female Xenopus laevis frogs were anaesthetized by immersion in a1g/L solution tricaine (Ethyl 3-aminobenzoate methanesulfonate, Sigma) buffered to pH 7 with NaHCO3. Surgery was performed 30–40 min later, once the frog was completely anaesthetized judging by loss of reflexes. Ovarian lobes were removed through 1 cm abdominal incision and then kept at 16°C in Barth’s modified solution containing (in mM): 88 NaCl, 1 KCl, 0.4 CaCl2, 0.3 Ca (NO3)2, 0.8 MgSO4, 2.4 NaHCO3, 5 Hepes, 2.5 sodium pyruvate, 100 μg/ml gentamicin sulfate, 100 U/ml penicillin, 100 μg/ml streptomycin, 250 μg/ml amphotericin B, 0.22μm filtered and adjusted to pH 7.5 with Tris-Base. Osmolarity was brought to 220 mOsm with saccharose. The oocytes were manually defolliculated on the same day of extraction and the following day 20 ng cRNA in nuclease-free water was injected into stage V-VI oocytes using a FemtoJet microinjector (Eppendorf). Finally, the injected oocytes were stored in 96 well plates containing Barth’s modified solution and kept at 16°C until experiment day.
(§2) Current measurements at controlled membrane potentials (voltage-clamp experiments) were performed using two intracellular microelectrodes in defolliculated Xenopus oocytes previously microinjected with 20 ng of cRNA. Voltage-clamp recording was performed at room temperature using a TURBO TEC-10CX amplifier (npi electronic GmbH, Tamm, Germany) and PClamp 10.6 software (Axon Instruments, USA), 1 to 4 days after oocyte injection. The oocytes were recorded in a chamber (Model RC-1Z, Warner Instrumenst, USA) under continuous superfusion. […] Reference was an Ag-AgCl electrode connected to the bath via a 3 M KCl in 3% agar bridge. Currents were recorded continuously during the experiments without interruptions for solution changes. Oocytes were held at -30 mV and a voltage protocol consisting of a voltage drop to -100 mV for 25ms followed by a 360 ms ramp from -100 mV to 60mV applied with a period of 565 ms was continuously given. The signal filtered at 1 kHz was acquired with a Digidata 1440A Analog-to-Digital Converter and analyzed with Axon pClamp 10.6 software. The solution that bathed the oocytes during the electrophysiological recordings had the following composition (mM): 115 NaCl, 2 KCl, 1.8 CaCl2, 1 MgCl2, 10 HEPES pH 7.5 obtained with NaOH. For the low chloride solution, all the NaCl was replaced with the gluconate salt of Na. This decreases chloride concentration from 122.6 to 7.6 mM while increasing that of gluconate from 0 to 115 mM. The stock solutions of the drugs in dimethyl sulfoxide (DMSO) were: 10 mM emamectin, 10 mM ivermectin, 100 mM picrotoxin. These were diluted in bath solution to obtain final concentrations.
(§3) The currents were normalized according to the extrapolated maximum current delivered by the Hill adjustment. In this way, the concentration that generates 50% of the maximum effect (EC50) and the Hill coefficient (nH) for each situation were obtained.
(Two-electrode voltage clamp holds a large cell at a set potential and records current.)

For assay [3], the target named is T1, CrGluCl-A. Description: Two-electrode voltage-clamp of Xenopus oocytes expressing CrGluCl-A. Particulars: 100 μM PTX, CrGluCl-A. The format is cell-based. On the procedure: as §1
Current measurements at controlled membrane potentials (voltage-clamp experiments) were performed using two intracellular microelectrodes in defolliculated Xenopus oocytes previously microinjected with 20 ng of cRNA. Voltage-clamp recording was performed at room temperature using a TURBO TEC-10CX amplifier (npi electronic GmbH, Tamm, Germany) and PClamp 10.6 software (Axon Instruments, USA), 1 to 4 days after oocyte injection. The oocytes were recorded in a chamber (Model RC-1Z, Warner Instrumenst, USA) under continuous superfusion. […] Reference was an Ag-AgCl electrode connected to the bath via a 3 M KCl in 3% agar bridge. Currents were recorded continuously during the experiments without interruptions for solution changes. […] The signal filtered at 1 kHz was acquired with a Digidata 1440A Analog-to-Digital Converter and analyzed with Axon pClamp 10.6 software. […]

Assay [4] relates to CrGluCl-C. The class given is cell-based, Caligus rogercresseyi. On the procedure: as §1, §2, §3
The test system of assay [5] is CrGluCl-D. The format is cell-based, Caligus rogercresseyi. To be noted: CrGluCl-D, read-out: IC50 PTX inhibition of spontaneous current. On the procedure:
as §1, §2, §3

T1 sequence (A0A1W6LZ70 entry or part of it): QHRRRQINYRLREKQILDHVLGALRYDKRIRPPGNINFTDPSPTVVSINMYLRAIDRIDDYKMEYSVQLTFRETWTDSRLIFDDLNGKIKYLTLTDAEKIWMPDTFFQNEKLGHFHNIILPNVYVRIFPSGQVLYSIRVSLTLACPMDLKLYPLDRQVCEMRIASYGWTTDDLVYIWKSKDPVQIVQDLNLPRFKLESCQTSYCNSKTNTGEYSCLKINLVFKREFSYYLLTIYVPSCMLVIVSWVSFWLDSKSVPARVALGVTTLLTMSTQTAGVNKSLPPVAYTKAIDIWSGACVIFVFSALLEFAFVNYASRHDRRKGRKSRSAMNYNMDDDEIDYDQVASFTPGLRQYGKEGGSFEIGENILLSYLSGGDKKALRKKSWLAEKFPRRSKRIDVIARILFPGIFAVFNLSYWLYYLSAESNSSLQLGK

In the case of emamectin, the EC50 in assay [1] (read-out: EC50 Ivermectin / avermectin irreversible activation) was around 0.2 µM. Moreover, in assay [2] (S3 Fig), the “antagonism of glutamate response” value is recorded as “antagonistic effect”.
As usually defined, the IC50 is the concentration that inhibits the measured activity by half. In the case of picrotoxin [PTX], the IC50 in assay [1] is 3.2 µM; in assay [4] (CrGluCl-C current elicited by 1 μM ivermectin, read-out: IC50 PTX inhibition of ivermectin-induced current), 275 ± 96 µM; in assay [5] (after 1 μM ivermectin (~2 min)) it was 221 ± 100 µM; in assay [5] (before ivermectin treatment) it was 16 ± 8.8 µM. Further, the “inhibition by PTX” value in assay [3] is 78 ± 2%; in assay [4] (100 μM PTX, CrGluCl-C), 23 ± 10%. The “nH (PTX inhibition)” value in assay [4] (CrGluCl-C current elicited by 1 μM ivermectin) was -1.2±0.22. Further, the “inhibition by PTX of glutamate-elicited current” value in assay [2] (100 μM PTX, 1 mM glutamate) is 76 ± 9%.
